From patent US20260199242A1, “PROCESSES FOR MAKING CYCLIC LIPID IMPLANTS FOR INTRAOCULAR USE” (Allergan, Inc., priority 2006, published 2026)

Key:
[1] = cited from earlier work
[2] = Potency of bimatoprost from melt-extruded implants as percent of label strength by HPLC (FIG. 1); assay type: physicochemical
Procedure: Typical extrusion temperatures for a PLGA implant are from about 85° C. to about 110° C. […] As shown by FIG. 1, five different formulation bimatoprost containing sustained release implants or drug delivery systems (“DDS”) were made. Proceeding from left to right to left along the x axis of FIG. 1 these five formulations were: The theoretical maximum potency of bimatoprost is by definition equal to the label strength (“LS”) of the bimatoprost. For example, the label strength of a one milligram implant which comprises 150 μg of bimatoprost is 150 μg. […] We determined the potency of the bimatoprost released from the implants made as a percent of their label strength using HPLC (high pressure liquid chromatography). Thus, the bimatoprost implants (each weighing about 1 mg) made were dissolved in 0.5 mL acetonitrile in a 10 mL volumetric flask and sonicated for 5 min. The flask was then filled to volume with diluent (72:18:10 water:acetonitrile:methanol); mixed well, and transferred to a HPLC vial for analysis. The HPLC analysis was performed using a Waters Alliance 2695 HPLC system, Waters Symmetry®C18 reverse-phase column 4.6 mm×75 mm, and a Waters 2487 UV detector. The conditions for analysis were flow rate of 1.5 mL/minute, UV wavelength of 210 nm, column temperature of 30° C. and mobile phase of 72:18:10 (water:acetonitrile:methanol, v/v/v) with 0.03% (w/v) trifluoroacetic acid. The injection volume of samples and standards assayed was 75 uL with a cycle time of 45 min.

[3] = lower temperature and faster rate in a low pH environment; cited from earlier work
[4] = system: patients with age-related macular degeneration (ARMD); details: infusion; cited from earlier work

SMILES | solubility in water [1] | potency of the bimatoprost released from the DDS (percent of label strength) ([2]; DDS made by melt extrusion carried out at 57° C.) | potency of the bimatoprost released from the DDS (percent of label strength) ([2]; DDS made by melt extrusion carried out at 85° C.) | bimatoprost therapeutically inactive (loss of potency) ([2]; extrusion temperature of about 80° C. or higher) [%] | temperature above which bimatoprost can degrade if heated [3] | visual acuity [4]
CCNC(=O)CCC/C=C\C[C@@H]1[C@@H](/C=C/[C@@H](O)CCc2ccccc2)[C@H](O)C[C@@H]1O [Bimatoprost] | slightly soluble | more than 90% | about 40% | ≤ 50 | greater than 65 °C | 
CCCCC[C@H](O)/C=C/[C@H]1[C@H](O)CC(=O)[C@@H]1CCCCCCC(=O)O [prostaglandin E1] |  |  |  |  |  | improvement in visual acuity
